Measured values: US8129381B2, “Caspase inhibitors and uses thereof” (Vertex Pharmaceuticals Incorporated, priority 2002, dated 2012)

How the values were obtained:
[1] = system: IL-1β secretion from human whole blood; assay: Inhibition of IL-1β secretion from whole blood; assay type: cell-based; conditions: human whole blood diluted 1:2 in PBS, LPS 5 ng/ml, 18 hours, ELISA
Experimental: Human blood is freshly drawn from healthy donors and diluted 1:2 in PBS. To 500 μl of diluted blood […] of prediluted test compound in RPMI medium and […] LPS (5 ng/ml final concentration on the plate) are added (LPS, Serotype 0111:B4, Sigma L3012). After stimulation for 18 hours supernatants are collected and assayed for IL-1β levels using the appropriate ELISA kit (R&D systems).
Compounds with an IC50>10 μM are listed as “A”. Compounds with an IC50 between 1 μM and 10 uM are listed as “B”. Compounds with an IC50<1 μM are listed as “C”.

[2] = system: rat cortical neurons; assay: Hypoxia-induced apoptosis of rat cortical neurons; assay type: cell-based, Wistar rat; conditions: Cortical neurone, oxygen-depleted serum-free medium, Cell Death Detection ELISA (DNA fragmentation)
Experimental: Cortical neurons are dissociated from Wistar rat embryos (E17) by a modification of the procedure of Rogers et al., Brain Res. Bulletin, 44:131 (1998). Briefly, cerebral cortices are isolated aseptically from 15-20 Wistar rat embryos. A cell suspension is prepared by mincing the cerebral cortices and digesting them with papain. Cells are washed with ovomucoid enzyme inhibitor and DNaseI and plated onto Poly-D lysine coated plates in high glucose DMEM containing 10% heat-inactivated fetal calf serum, L-glutamine, penicillin and streptomycin. The yield of neurons is […] per embryo and they are 80-90% viable as assessed by Trypan blue exclusion.
The neurons are cultured in complete medium at 37° C. in a normal atmosphere for 48 hours prior to the hypoxia experiments. For hypoxia, the normal cell medium is replaced by oxygen-depleted serum-free medium. Cells are incubated in an atmosphere of 95% N2/5% CO2 for various lengths of time. Compounds are dissolved in DMSO at 100 mM then diluted in medium and added to the culture from time=0. The level of apoptosis is measured using a Cell Death Detection ELISA kit (Roche) which detects DNA fragmentation. Plates are read at 405 nm. Controls included cells cultured in aerobic conditions in serum-containing medium (+serum) and cells cultured in aerobic conditions in serum-deprived medium (−serum).
Compounds with an IC50>0.5 μM are listed as “A”. Compounds with an IC50 between 0.1 μM and 0.5 uM are listed as “B”. Compounds with an IC50<0.1 μM are listed as “C”.

[3] = target: T1, recombinant, purified human Caspase-1 (Homo sapiens, UniProt P29466); assay: Enzyme assay, caspase inhibition (fluorogenic substrate cleavage); assay type: biochemical; conditions: second order rate constant of enzyme inactivation; substrate Acetyl-Tyr-Val-Ala-Asp-amino-4-methylcoumarin
T1 sequence (P29466 120-297 limits assumed): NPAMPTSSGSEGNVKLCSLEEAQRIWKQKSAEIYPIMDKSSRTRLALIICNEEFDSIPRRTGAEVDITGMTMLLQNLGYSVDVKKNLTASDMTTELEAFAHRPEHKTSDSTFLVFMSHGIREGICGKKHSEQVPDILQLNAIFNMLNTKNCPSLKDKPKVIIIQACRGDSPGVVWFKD
T1 sequence (P29466 317-404 limits assumed): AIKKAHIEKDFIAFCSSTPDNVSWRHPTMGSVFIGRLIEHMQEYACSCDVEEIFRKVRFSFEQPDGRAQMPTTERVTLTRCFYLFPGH
Excerpt: (§1) The assays for caspase inhibition are based on the cleavage of a fluorogenic substrate by recombinant, purified human Caspases −1, −3, −7 or −8. The assays are run in essentially the same way as those reported by Garcia-Calvo et al., J. Biol. Chem. 273, 32608-32613 (1998), using a substrate specific for each enzyme. The substrate for Caspase-1 is Acetyl-Tyr-Val-Ala-Asp-amino-4-methylcoumarin and the substrate for Caspases −3, −7 and −8 is Acetyl-Asp-Glu-Val-Asp-amino-4-methylcoumarin both as disclosed in Garcia-Calvo et al., J. Biol. Chem. 273, 32608-32613 (1998).
(§2) The observed rate of enzyme inactivation at a particular inhibitor concentration, kobs, is computed by direct fits of the data to the equation derived by Thornberry et al., Biochemistry, 33, […] (1994) using a nonlinear least-squares analysis computer program (PRISM 2.0; GraphPad software). To obtain the second order rate constant, kinact, kobs values are plotted against their respective inhibitor concentrations and kinact values are subsequently calculated by computerized linear regression.
(§3) Compounds with kinact(M^−1s^−1)>500000 are listed as “A”. Compounds with kinact(M^−1s^−1) between 100000 and 500000 are listed as “B”. Compounds with kinact(M^−1s^−1)<100000 are listed as “C”.

[4] = target: recombinant, purified human Caspase-8 (Homo sapiens, UniProt Q14790); assay: as above; assay type: biochemical; conditions: second order rate constant of enzyme inactivation; substrate Acetyl-Asp-Glu-Val-Asp-amino-4-methylcoumarin
Sequence of recombinant, purified human Caspase-8 (Q14790 217-374 limits assumed): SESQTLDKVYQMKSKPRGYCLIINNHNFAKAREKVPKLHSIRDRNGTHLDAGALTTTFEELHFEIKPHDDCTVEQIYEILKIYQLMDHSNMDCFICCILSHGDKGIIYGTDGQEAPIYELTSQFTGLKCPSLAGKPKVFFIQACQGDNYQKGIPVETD
Sequence of recombinant, purified human Caspase-8 (Q14790 385-479 limits assumed): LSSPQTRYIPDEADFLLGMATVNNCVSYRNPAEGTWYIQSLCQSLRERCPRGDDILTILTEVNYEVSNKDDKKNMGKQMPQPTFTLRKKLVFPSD
Excerpt: as §1, §2, §3

[5] = target: T2, recombinant, purified human Caspase-3 (Homo sapiens, UniProt P42574); assay: as above; assay type: biochemical; conditions: second order rate constant of enzyme inactivation; substrate Acetyl-Asp-Glu-Val-Asp-amino-4-methylcoumarin
T2 sequence (P42574 29-175 limits assumed): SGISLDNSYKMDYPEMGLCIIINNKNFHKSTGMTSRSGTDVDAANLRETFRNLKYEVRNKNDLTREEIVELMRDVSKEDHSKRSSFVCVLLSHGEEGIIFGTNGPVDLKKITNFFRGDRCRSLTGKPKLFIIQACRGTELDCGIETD
T2 sequence (P42574 176-277 limits assumed): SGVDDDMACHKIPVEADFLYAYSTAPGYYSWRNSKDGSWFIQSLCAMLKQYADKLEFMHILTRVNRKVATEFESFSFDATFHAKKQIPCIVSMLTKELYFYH
Excerpt: as §1, §2, §3

IC50 [1] | Structure (SMILES) | IC50 [2] | kinact Caspase-1 [3] | kinact Caspase-8 [4] | kinact Caspase-3 [5]
1 to 10 µM | CC[C@@H](C(=O)NC(CC(=O)O)C(=O)CF)n1cnc2ccc(Oc3ccccc3Cl)cc2c1=O (stereo partly drawn) [Compound 12, 3-[(2S)-2-[6-(2-Chloro-phenoxy)-4-oxo-4H-quinazolin-3-yl)-butyrylamino]-5-fluoro-4-oxo-pentanoic acid] | > 0.5 µM | A (Compounds with kinact(M^−1s^−1)>500000 are listed as “A”) | A (Compounds with kinact(M^−1s^−1)>500000 are listed as “A”) | A (Compounds with kinact(M^−1s^−1)>500000 are listed as “A”)
1 to 10 µM | CC[C@@H](C(=O)NC(CC(=O)O)C(=O)CF)n1cnc2ccc(Oc3cccc(Cl)c3)cc2c1=O (stereo partly drawn) [Compound 13, 3-[(2S)-2-[6-(3-Chlorophenoxy)-4-oxo-4H-quinazolin-3-yl)-butyrylamino]-5-fluoro-4-oxo-pentanoic acid] | 0.1 to 0.5 µM | B (Compounds with kinact(M^−1s^−1) between 100000 and 500000 are listed as “B”) | A (Compounds with kinact(M^−1s^−1)>500000 are listed as “A”) | B (Compounds with kinact(M^−1s^−1) between 100000 and 500000 are listed as “B”)
< 1 µM | CC[C@@H](C(=O)NC(CC(=O)O)C(=O)CF)n1cnc2ccc(Oc3cccc(F)c3)cc2c1=O (stereo partly drawn) [Compound 14, 5-Fluoro-3-{(2S)-2[6-(3-fluorophenoxy)-4-oxo-4H-quinazolin-3-yl]-butyrylamino}-4-oxo-pentanoic acid] | > 0.5 µM | A (Compounds with kinact(M^−1s^−1)>500000 are listed as “A”) | B (Compounds with kinact(M^−1s^−1) between 100000 and 500000 are listed as “B”) | A (Compounds with kinact(M^−1s^−1)>500000 are listed as “A”)
1 to 10 µM | CC[C@@H](C(=O)NC(CC(=O)O)C(=O)CF)n1cnc2ccc(Oc3ccc(Cl)cc3Cl)cc2c1=O (stereo partly drawn) [Compound 15, 3-{(2S)-2-[6-(2,4-Dichloro-phenoxy)-4-oxo-4H-quinazolin-3-yl]-butyrylamino}-5-fluoro-4-oxo-pentanoic acid] | 0.1 to 0.5 µM | B (Compounds with kinact(M^−1s^−1) between 100000 and 500000 are listed as “B”) | A (Compounds with kinact(M^−1s^−1)>500000 are listed as “A”) | B (Compounds with kinact(M^−1s^−1) between 100000 and 500000 are listed as “B”)
1 to 10 µM | CC[C@@H](C(=O)NC(CC(=O)O)C(=O)CF)n1cnc2ccc(Sc3cccc(F)c3)cc2c1=O (stereo partly drawn) [Compound 17, 5-Fluoro-3{(2S)-2[6-(3-fluoro-phenylsulfanyl)-4-oxo-4H-quinazolin-3-yl]-butyrylamino}-4-oxo-pentanoic acid] | 0.1 to 0.5 µM | A (Compounds with kinact(M^−1s^−1)>500000 are listed as “A”) | A (Compounds with kinact(M^−1s^−1)>500000 are listed as “A”) | A (Compounds with kinact(M^−1s^−1)>500000 are listed as “A”)

More lines, now with the values behind:

Structure (SMILES) | IC50 [1] | IC50 [2] | kinact Caspase-1 [3] | kinact Caspase-8 [4] | kinact Caspase-3 [5]
CC[C@@H](C(=O)N[C@@H](CC(=O)O)C(=O)COc1c(F)c(F)cc(F)c1F)n1ccc2ccc(Cl)cc2c1=O [Compound 10, (S,S)-3-[2-(7-chloro-1-oxo-1H-isoquinolin-2-yl)-butyrylamino]-4-oxo-5-(2,3,5,6-tetrafluoro-phenoxy)-pentanoic acid] | 1 to 10 µM | < 0.1 µM | A (Compounds with kinact(M^−1s^−1)>500000 are listed as “A”) | C (Compounds with kinact(M^−1s^−1)<100000 are listed as “C”) | A (Compounds with kinact(M^−1s^−1)>500000 are listed as “A”)
CC[C@@H](C(=O)N[C@@H](CC(=O)O)C(=O)COc1c(F)c(F)cc(F)c1F)n1ccc2cc(Cl)c(Cl)cc2c1=O [Compound 11, (S,S)-3-[2-(6,7-dichloro-1-oxo-1H-isoquinolin-2-yl)-butyrylamino]-4-oxo-5-(2,3,5,6-tetrafluoro-phenoxy)-pentanoic acid] | > 10 µM | 0.1 to 0.5 µM | A (Compounds with kinact(M^−1s^−1)>500000 are listed as “A”) | C (Compounds with kinact(M^−1s^−1)<100000 are listed as “C”) | A (Compounds with kinact(M^−1s^−1)>500000 are listed as “A”)
CC[C@@H](C(=O)NC(CC(=O)O)C(=O)CF)n1cnc2ccc(Sc3ccccc3)cc2c1=O (stereo partly drawn) [Compound 16, 5-Fluoro-4-oxo-3-[(2S)-2-(4-oxo-6-phenylsulfanyl-4H-quinazolin-3-yl)-butyrylamino]-pentanoic acid] | 1 to 10 µM | 0.1 to 0.5 µM | A (Compounds with kinact(M^−1s^−1)>500000 are listed as “A”) | A (Compounds with kinact(M^−1s^−1)>500000 are listed as “A”) | A (Compounds with kinact(M^−1s^−1)>500000 are listed as “A”)
CC[C@@H](C(=O)N[C@@H](CC(=O)O)C(=O)COc1c(F)c(F)cc(F)c1F)n1ccc2ccc(C(F)(F)F)cc2c1=O [Compound 19, (S,S)-3-[2-(7-trifluoromethyl-1-oxo-1H-isoquinolin-2-yl)-butyrylamino]-4-oxo-5-(2,3,5,6-tetrafluoro-phenoxy)-pentanoic acid] | 1 to 10 µM | < 0.1 µM | A (Compounds with kinact(M^−1s^−1)>500000 are listed as “A”) | C (Compounds with kinact(M^−1s^−1)<100000 are listed as “C”) | A (Compounds with kinact(M^−1s^−1)>500000 are listed as “A”)
CCCSc1ccc2ncn([C@@H](CC)C(=O)NC(CC(=O)O)C(=O)CF)c(=O)c2c1 (stereo partly drawn) [Compound 22, 5-Fluoro-4-oxo-3-[(2S)-2-(4-oxo-6-propylsulfanyl-4H-quinazolin-3-yl)-butyrylamino]-pentanoic acid] | < 1 µM | > 0.5 µM | A (Compounds with kinact(M^−1s^−1)>500000 are listed as “A”) | A (Compounds with kinact(M^−1s^−1)>500000 are listed as “A”) | A (Compounds with kinact(M^−1s^−1)>500000 are listed as “A”)
